Source: patent US10590422B2, “Anticancer therapeutic intervention” (PHYZAT BIOPHARMACEUTICALS, LDA., priority 2017, dated 2020)

Key:
[1] = system: LAT1 mRNA; experiment: LAT1 gene expression (RT-qPCR) after LAT1 gene silencing in human colon cancer HTC-116 cells; assay type: cell-based; details: treatment 6 h
Description: (§1) SK-HEP-1, T24, HT-1080 and HCT-116 cell lines were maintained in a humidified atmosphere of 5% CO2 at 37° C. SK-HEP-1 cells were grown in RPMI-1640 (Sigma, St. Louis, Mo.) supplemented with 20% fetal bovine serum (FBS) (Gibco, UK), 100 U/mL penicillin G, 0.25 μg/mL amphotericin B, 100 μg/mL streptomycin (Gibco, UK), 25 mM sodium bicarbonate (Merck, Germany) and 25 mM N-2-hydroxyethylpiperazine-N′-2-ethanosulfonic acid (HEPES) (Sigma, St. Louis, Mo.). T24 and HT-1080 cells were grown, respectively, in Dulbecco's Modified Eagle's Medium (DMEM)—high glucose (Sigma, St. Louis, Mo.) and DMEM—low glucose (Sigma, St. Louis, Mo.), supplemented with 10% FBS (Gibco, UK), 100 U/mL penicillin G, 0.25 μg/mL amphotericin B, 100 μg/mL streptomycin (Gibco, UK), 25 mM sodium bicarbonate (Merck, Germany) and 25 mM HEPES (Sigma, St. Louis, Mo.). HCT-116 cells were grown in McCoy's 5A (Sigma, St. Louis, Mo.) supplemented with 10% FBS (Gibco, UK), 100 U/mL penicillin G, 0.25 μg/mL amphotericin B, 100 μg/mL streptomycin (Gibco, UK), 25 mM sodium bicarbonate (Merck, Germany) and 25 mM HEPES (Sigma, St. Louis, Mo.). For all cell lines the medium was changed every 2 days, and cells reached confluence 3-4 days after initial seeding. For subculturing, cells were dissociated with 0.25% trypsin-ethylenediaminetetraacetic acid (EDTA) (Sigma, St. Louis, Mo.), split 1:15 or 1:20 and subcultured in a 21-cm^2 growth area (Sarstedt, Germany).
(§2) Total RNA was isolated and purified using the SV Total RNA Isolation System (Promega, USA) according to manufacturer's instructions. RNA quality and concentration were verified in the NanoDrop ND1000 Spectrophotometer (Thermo Scientific, USA), and RNA integrity and genomic DNA contamination were evaluated by agarose gel electrophoresis. Total RNA (1 μg) was converted into cDNA using the Maxima Scientific First Strand cDNA Synthesis Kit for RT-qPCR (Thermo Scientific, USA), according to instructions. The following protocol was used: 1st step, 10 min at 25° C.; 2nd step, 15 min at 50° C.; 3rd step, 5 min at 85° C. cDNA was used for qPCR analysis using Maxima SYBR Green qPCR Master Mix (Thermo Scientific, USA) in the StepOnePlus instrument (Applied Biosystems, USA). QuantiTect Primer Assay for LAT1 and ASCT2 and for the endogenous control gene GAPDH (Quiagen, Germany) were used. The qPCR reaction was performed in 96-well PCR plates (Sarstedt, Germany) as follows: one cycle of 10 min at 95° C., followed by 40 PCR cycles at 95° C. 15 s and 60° C. 60 s. […] No template controls were always evaluated for each target gene. Quantification cycle (Cq) values were generated automatically by the StepOnePlus 2.3 Software and the ratio of the target gene was expressed in comparison to the endogenous control gene GAPDH.
(§3) Cells were plated in 24-well (Sarstedt, Germany) or 6-well plates (Sarstedt, Germany) or 96-well plates with black walls clear bottom (BD Biosciences, USA) and incubated 24 h under normal growth conditions. siRNAs against LAT1 and transfection agent were diluted at desired concentrations and mixed according to transfection agent manufacturer's instructions. The mixture was incubated 20 min at RT for siRNA-complex formation, after which it was added to the cells and incubated at 37° C., 5% CO2. After the incubation period, serum and antibiotic was restored and cells were further incubated at normal conditions for the desired time points until evaluation of LAT1 activity or LAT1 expression (immunoblotting and RT-qPCR).

[2] = system: ASCT2; experiment: ASCT2 activity: [^14C]-L-alanine uptake in fibrosarcoma HT-1080 cells after ASCT2 gene silencing; assay type: cell-based, human; details: at 48 h
Description: Cells were plated in 24-well plates (Sarstedt, Germany) and grown until confluence was reached. On the day of the experiment, Cell culture medium was aspirated and cells were preincubated for 15 min in Hanks' medium (ChCl 140 mM, KCl 5 mM, MgSO4.7H2O 0.8 mM, K2HPO4 0.33 mM, KH2PO4 0.44 mM, MgCl2.6H2O 1 mM, CaCl2) 0.025 mM, Tris-HCl 9.75 mM, pH 7.4). Uptake was initiated by the addition of Hanks' medium with 0.25 μM [^14C]-L-alanine in the absence and in the presence of 3 mM unlabeled L-alanin. During preincubation and incubation cells were continuously shaken and maintained at 37° C. Uptake was terminated after 1 min by rapid removal of uptake solution by means of a vacuum pump connected to a Pasteur pipette, followed by a rapid wash with Hanks' medium. Subsequently, cells were solubilized in 0.1% vol/vol Triton X-100 (dissolved in 5 mM Tris-HCl, pH 7.4), and radioactivity was measured by liquid scintillation counting.
as §3, with “ASCT2” for “LAT1”

[3] = system: ASCT2 mRNA; experiment: ASCT2 gene expression (RT-qPCR) after ASCT2 gene silencing in human colon cancer HTC-116 cells; assay type: cell-based; details: treatment 6 h
Description: as §1, §2
as §3, with “ASCT2” for “LAT1”

58/387/388 (sense CUUCGCCACCUACCUGCUCAATT; antisense UUGAGCAGGUAGGUGGCGAAGTT; siRNA; sugars by position and backbone not given here; further chemistry not fully specified)
LAT1 mRNA relative abundance ([1]; 5, 25 and 45 nM, concentration dependent, 0.5% Lipofectamine 2000, Lipofectamine RNAiMAX or Injectin, at 72 h, FIGS. 10A and 10B): decreased
LAT1 mRNA relative abundance ([1]; 5 or 25 nM siRNA, at 24 h or 48 h, 0.5% Lipofectamine 2000, FIGS. 9A and 9C): decreased
LAT1 mRNA relative abundance ([1]; 72 h, 0.17% Lipofectamine 2000 or 0.1% Injectin, FIG. 19A): significantly decreased

278/403/404 (sense UGCCACGGUCGCCUCUGAGAATT; antisense UUCUCAGAGGCGACCGUGGCATT; siRNA; sugars by position and backbone not given here; further chemistry not fully specified)
Effect on [^14C]-L-alanine uptake compared with SEQ ID NO: 267/397/398 ([2]; HT-1080 cells, 5 nM, p<0.05): significantly greater
[^14C]-L-alanine (0.25 μM) uptake at initial rate of uptake (1 min) ([2]; fibrosarcoma HT-1080 cells, 5 nM siRNA, treatment 6 h, 0.4% Lipofectamine 2000, FIG. 8B): decreased
ASCT2 mRNA relative abundance ([3]; 5 or 25 nM siRNA, at 24 h or 48 h, 0.5% Lipofectamine 2000, FIGS. 9B and 9C): decreased
ASCT2 mRNA relative abundance ([3]; 72 h, 0.17% Lipofectamine 2000 or 0.1% Injectin, FIG. 20A): significantly decreased
